Source: patent EP0532759A1, “NOVEL ALLYL ALCOHOL DERIVATIVE” (TSUMURA & CO., priority 1991, dated 1992)
Where two headings read alike, the source gives them in different places. Marks after values point to notes of the source that are not given here.

Assays:
cyclooxygenase = experiment: Cyclooxygenase inhibitory activity (PGE2 formation from [1-14C] arachidonic acid); format: biochemical; conditions: microsome fraction of rabbit kidney medulla; 37°C, 15 min; PGE2 radioactivity; read-out: IC₅₀
Method: 60 ml of a 0.1 M phosphate buffer (pH: 7.5) containing 1 mM glutathione was added to 7.0 g of medulla of kidney of a rabbit, and the mixture was homogenized through the use of a polytron. The resultant homogenate was centrifuged at 9,000 x G for 20 min to obtain a microsome fraction. This fraction was dissolved in 7 ml of a 0.1 M phosphate buffer (pH: 7.5) containing 1 […] glutathione to give a cyclooxygenase enzyme preparation.
4 mM glutathione, 10 mM tryptophan, 0.25 µM hemoglobin (each in final concentration) and a phosphate buffer (pH: 7.5) were added to 15 µl of the enzyme preparation thus prepared, and [1-¹⁴C] arachidonic acid (5 x 10⁴ dpm) and the compound of the present invention were further added thereto in such a manner that the concentrations were 40 µM, 20 µM, 10 µM and 5 µM, respectively (total amount: […]). The mixture was incubated at 37°C for 15 min, and 1 N hydrochloric acid was added thereto to terminate the reaction. Prostaglandin E₂ (PGE₂) was added thereto as a carrier, and the reaction product was extracted with 2 ml of an ether. The resultant extract was concentrated and applied to thin layer chromatography (development solvent = chloroform : methanol : acetic acid = 18 : 1 : 1) to separate a product. […] The PGE₂ radioactivity was measured by means of a liquid scintillation counter.

balb/c 3T3 cells = experiment: Inhibition of EGF-accelerated fibroblast growth (3H-thymidine incorporation); format: cell-based; conditions: 0.5 µg per hole compound, 50 pg per hole mouse EGF
Method: A culture solution (hereinafter referred to as "CS DMEM") containing 10 % calf serum adjusted in such a manner that fibroblast (balb/c 3T3 cells) was contained in a concentration of 2.5 x 10⁴ cells per 0.5 ml was incubated on a 24-hole plate in an amount of 1 ml per hole. After the fibroblast was saturated in a monolayer state, cultivation was conducted at 37°C for 12 hr in 1% CS DMEM instead of the above medium through the use of 5 % CO₂. 0.5 µg per hole of the compound of the present invention and 50 pg per hole of mouse EGF were added thereto, and the cultivation was further conducted for 16 hr. ³H-thymidine in an amount of 0.5 µCi/50 µl/well was added thereto, and the mixture was cultivated for 8 hr. Then, the culture solution was removed, and washing was conducted with a cooled isotonic phosphate buffer. A 5 % cold trichloroacetic acid was added thereto, and the mixture was allowed to stand for 30 min. The supernatant was removed, and the residue was dissolved in a 0.5 M sodium hydroxide solution. The solution was neutralized with 0.5 M hydrochloric acid, a scintillation cocktail was added thereto, and counting was conducted by means of a liquid scintillation counter. The radioactivity of ³H-thymidine incorporated into the cells accompanying the growth was measured to study the function of the novel allyl alcohol on the growth of the cell.

rat = experiment: Analgesic activity test (Randall-Selitto method, Brewer's yeast); format: in vivo
Method: Experimental was made with "Randall-Selitto" analgesic effect measuring apparatus (manufactured by Ugo Basile in Italy), pressure was applied through a pressure terminal, and the pressure (g) applied at the time showing a wriggling motion in rat was measured as a threshold value for pain. The threshold value for pain was measured for each leg, and rats showing substantially the same degree of threshold value for pain were selected and used for the experiment. A 20 % aqueous Brewer's yeast solution was subcutaneously administered in an amount of 0.1 ml to the right hind paw of the rat, and the threshold value for pain was measured on both legs 30 min and 60 min after the administration of the aqueous solution. At the same time, a suspension of the compound of the present invention in a 2 % polysorbate 80 physiological saline (prepared by dissolving the compound of the present invention in polysorbate 80 in an amount of 2 % of the whole amount of the solution and gradually adding and mixing physiological saline therewith) was intravenously and orally administered, and the threshold value for pain of both legs was measured 15 min, 30 min, 60 min, 90 min and 120 min after the administration. The measurements were compared with the control group, and an increase in the threshold value for pain was regarded as an evidence for the analgesic activity.

LD50 (acute toxicity) = conditions: in vivo, mouse, 72 hr after administration, read-out: LD₅₀
Method: A suspension of the compound of the present invention in a 2 % polysorbate 80 physiological saline (prepared by dissolving the compound of the present invention in polysorbate 80 in an amount of 2 % of the whole amount of the solution and gradually adding and mixing physiological saline therewith) was intravenously and orally administered to a mouse, and 72 hr after the administration, the LD₅₀ was calculated based on whether the mouse had survived or was dead. In the calculation, the up-and-down method was used for the intravenous administration, while the Litchfield-Wilcoxon method was used for the oral administration.

5-lipoxygenase = target: T1, 5-lipoxygenase (Rattus norvegicus, UniProt P12527); experiment: 5-Lipoxygenase inhibitory activity (5-HETE formation, HPLC); format: biochemical; conditions: enzyme preparation from RBL-1 culture cells; 10 µM arachidonic acid; 37°C, 10 min; read-out: IC₅₀
T1 construct: endogenous in cells; host or cells: RBL-1 cells (sonicated, 105,000 x G supernatant)
T1 sequence (P12527 1-673): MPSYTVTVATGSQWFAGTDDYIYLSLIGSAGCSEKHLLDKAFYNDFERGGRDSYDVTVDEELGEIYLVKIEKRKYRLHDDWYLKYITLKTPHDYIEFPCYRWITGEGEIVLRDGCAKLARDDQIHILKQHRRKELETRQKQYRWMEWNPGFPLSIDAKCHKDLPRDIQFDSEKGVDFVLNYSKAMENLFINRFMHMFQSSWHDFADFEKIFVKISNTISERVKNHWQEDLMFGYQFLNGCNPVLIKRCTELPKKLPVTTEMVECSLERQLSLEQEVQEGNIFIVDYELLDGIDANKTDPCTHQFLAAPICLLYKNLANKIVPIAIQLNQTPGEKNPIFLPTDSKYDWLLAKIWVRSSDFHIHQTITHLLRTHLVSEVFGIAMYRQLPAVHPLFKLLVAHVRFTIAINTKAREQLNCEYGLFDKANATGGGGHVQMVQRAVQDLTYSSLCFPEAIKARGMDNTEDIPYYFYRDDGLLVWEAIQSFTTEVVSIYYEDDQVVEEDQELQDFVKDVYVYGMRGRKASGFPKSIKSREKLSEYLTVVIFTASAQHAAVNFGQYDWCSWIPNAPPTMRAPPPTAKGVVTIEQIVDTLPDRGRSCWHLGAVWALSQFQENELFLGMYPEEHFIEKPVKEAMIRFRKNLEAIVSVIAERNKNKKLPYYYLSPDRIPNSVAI
Method: RBL-1 culture cells were suspended in a 50 mM phosphate buffer (pH: 7.4) containing 1 mM ethylenediaminetetraacetic acid (EDTA) and 10 % ethylene glycol so that the concentration was 5 x 10⁶ cells/ml. The suspension was subjected to an ultrasonic treatment and centrifuged at 10,000 x G for 10 min and further at 105,000 x G for 60 min. The resultant supernatant was used as a 5-lipoxygenase enzyme preparation.
50 mM phosphate buffer, 15 mM calcium chloride, 20 µM indomethacin, 18 mM glutathione, 6 mM adenosine triphosphate (ATP), 10 µM arachidonic acid, the enzyme preparation prepared above and an ethanol solution of the compound of the present invention were placed in a test tube in such a manner that the whole quantity was 0.6 ml and the final concentration was 5 µM, 1 µM and 0.5 µM. A reaction was allowed to proceed at 37°C for 10 min. After the completion of the reaction, 1.2 ml of acetone and 100 µl of 2 N formic acid were added thereto to terminate the reaction. […] The resultant extract was concentrated and dissolved in methanol, and the content of […] in the solution was measured by means of high performance liquid chromatography [column = TSK-gel ODS-80 TM (manufactured by Tosoh Corporation); mobile phase = acetonitrile : water : acetic acid (60 : 40 : 0.02); flow rate = 1 ml/min; ultraviolet rays for detection = 235 nm]. […]

[1] = tested on: microvascular endothelial cells derived from human caul; experiment: Proliferation and migration of microvascular endothelial cells (Boyden chamber, EGF); format: cell-based; conditions: Endothelial cell, 10 µM/ml compound, 10 ng/ml EGF, cells that came out into the lower chamber, read-out: percentage inhibition
Method: 5 x 10⁴ microvascular endothelial cells derived from human caul were placed in an upper chamber of a Boyden chamber, and 10 ng/ml of EGF was added as a control to a lower chamber separated from the upper chamber by means of a filter having a pore size of 5 µm (a polycarbonate filter manufactured by Nucleobore). 10 ng/ml of EGF and 10 µM/ml of the compound of the present invention were added to the drug administration group . The number of cells which had come out into the lower chamber was measured in terms of cells per HPF […].

[2] = tested on: platelet-rich plasma (PRP); experiment: Platelet aggregation inhibition test (Born method, in vitro); format: cell-based; conditions: Rattus norvegicus; for inhibition at 5 µM: compound 5 µM; for inhibition at 20 µM: compound 20 µM
Method: Blood was collected from a rat subjected to fasting for 12 hr so that the volume of 3.8 % sodium citrate became 1/10. The collected blood was centrifuged at room temperature and 159 x G for 10 min to collect a platelet-rich plasma (PRP). The remaining blood was centrifuged at room temperature and 1800 x G for 10 min to collect PPP (platelet poor plasma). The number of platelets was measured by means of PC-603A manufactured by Erma and adjusted to 3 x 10⁸/ml with PPP. The aggregation capability was measured according to the Born method with the concentration of PRP being 0 % (PPP) and 100 % […] through the use of a 4 channel NKK HEMATRACER aggregation meter. In an in vitro test, the novel allyl alcohol derivative was added in a concentration of 5 µM or 20 µM, the mixture was pre-incubated at 37°C for 3 min. An aggregation inducer was added thereto, and the aggregation capability was measured. Adenine diphosphate (ADP), collagen, epinephrine and arachidonic acid were used as the aggregation inducer. The concentration of the aggregation inducer was 2 µM for ADP, 1 µg/ml for collagen, 400 µM for arachidonic acid and 6 µg/ml of epinephrine. The novel ally] alcohol derivative was applied to the experiment after dissolution in dimethylsulfoxide (DMSO). The final concentration of DMSO thereof was 0.4 %, the addition of DMSO alone in this concentration had no clear effect on the aggregation of the platelet.

ICR mouse = experiment: Arachidonic acid ear lobe edema inhibiting test; format: in vivo; conditions: 1 mg per 20 µl acetone applied to auricle; 2 mg arachidonic acid 30 min later; ear thickness after one hour; versus control
Method: 1 mg of the novel allyl alcohol derivative per 20 µl of acetone were applied to the auricle on the inside of the right of an ICR mouse (female, 8 - 11 weeks old). 30 min after the application, 10 µl of an acetone solution containing 2 mg of arachidonic acid was applied to the same site, and one hour after the application of the acetone solution, the thickness of the ear was measured by means of a dial thickness gauge. An equal weight of acetone was applied to the auricle on the left side, and measurement was conducted in the same manner as that described above, and […] was regarded as swelling of the ear. Further, a group wherein the solvent was applied instead of the sample was used as a control, and the ear lobe edema inhibition was determined by the following equation. [formula]

[3] = 140 mg/kg, 15 min after administration, control 123
[4] = 140 mg/kg, 30 min after administration, control 115
[5] = 140 mg/kg, 60 min after administration, control 108
[6] = inducer arachidonic acid 400 µM

**Q.** For `CCCCC/C=C/C(O)CCc1ccc(O)c(OC)c1` (stereo not shown) [compound of the present invention], which IC50 (cyclooxygenase) is on record?
**A.** 7.62 µM

**Q.** What about the growth inhibition (balb/c 3T3 cells) of the same compound?
**A.** 72.9%

**Q.** And the “Threshold value for pain (g)” value (rat; 70 mg/kg, 15 min after administration, control 123)?
**A.** 153^a g

**Q.** What about the “Threshold value for pain (g)” value (rat; 70 mg/kg, 30 min after administration, control 115) of the same compound?
**A.** 183^b g

**Q.** And the “Threshold value for pain (g)” value (rat; 70 mg/kg, 60 min after administration, control 108)?
**A.** 142^a g

**Q.** What about the “Threshold value for pain (g)” value (rat; [3]) of the same compound?
**A.** 190^b g

**Q.** And the “Threshold value for pain (g)” value (rat; [4])?
**A.** 222^b g

**Q.** What about the “Threshold value for pain (g)” value (rat; [5]) of the same compound?
**A.** 210^b g

**Q.** And the “threshold value for pain as compared with the control group” value (rat; dose of 5 mg/kg, within 15 to 60 min, p < 0.05)?
**A.** significant increase

**Q.** And the LD50 at 72 hr (LD50 (acute toxicity); Intravenous, up-and-down method)?
**A.** 75.6 mg/kg

**Q.** And the LD50 at 72 hr (LD50 (acute toxicity); Oral, Litchfield-Wilcoxon method)?
**A.** 1340 mg/kg

**Q.** What about the IC50 (5-lipoxygenase) of the same compound?
**A.** 0.54 µM

**Q.** And the inhibition at 10 µM [1]?
**A.** 82%

**Q.** What about the inhibition at 5 µM ([2]; inducer ADP 2 µM) of the same compound?
**A.** 12%

**Q.** And the inhibition at 20 µM ([2]; inducer ADP 2 µM)?
**A.** 26%

**Q.** And the inhibition at 5 µM [2, 6]?
**A.** 67%

**Q.** And the inhibition at 20 µM [2, 6]?
**A.** 96%

**Q.** And the inhibition at 5 µM ([2]; inducer collagen 1 µg/ml)?
**A.** 21%

**Q.** And the inhibition at 20 µM ([2]; inducer collagen 1 µg/ml)?
**A.** 43%

**Q.** What about the inhibition at 5 µM ([2]; inducer epinephrine 6 µg/ml) of the same compound?
**A.** 52%

**Q.** And the inhibition at 20 µM ([2]; inducer epinephrine 6 µg/ml)?
**A.** 63%

**Q.** And the edema inhibition (ICR mouse)?
**A.** 83%

**Q.** Which “Threshold value for pain (g)” value (rat; [3]) does the source give for `Cc1c(N(C)C)c(=O)n(-c2ccccc2)n1C` [Aminopyrine, reference compound] here?
**A.** 190^b g

**Q.** And the “Threshold value for pain (g)” value (rat; [4])?
**A.** 235^b g

**Q.** What about the “Threshold value for pain (g)” value (rat; [5]) of the same compound?
**A.** 212^b g
